Assay results taken from patent publication US20260345619A1 (Principia Biopharma Inc., priority 2023, published 2026).

Test: Pre-bronchodilator FEV1 and percent predicted FEV1 by spirometry, change from baseline
Assay type: in vivo, human
Description: Spirometry is a standard test to measure patients' lung function.
The primary endpoint was the proportion of patients with LOAC. The key secondary endpoint for the study was change in pre-bronchodilator FEV1 from baseline at EOT.
Reversibility is defined as an increase of the absolute FEV1 after administration of bronchodilator and is measured by spirometry as postbronchodilator increase in FEV1 in percent of the prebronchodilator FEV1. After spirometry for measuring prebronchodilator FEV1, participants were to receive 2-4 puffs of albuterol/salbutamol or levalbuterol/levosalbutamol from a primed MDI. The postbronchodilator spirometry may have been repeated several times within 30 minutes after administration of bronchodilator. Alternatively, and only if it was consistent with usual office practice (to be documented), reversibility may have been performed using inhalation of nebulized albuterol/salbutamol or levalbuterol/levosalbutamol.
Secondary endpoints included pre-bronchodilator FEV1 change from baseline at EOT, ACQ-5 score change from baseline, and AQLQ score change from baseline. Other secondary and exploratory endpoints are described in Table 2.

[1] = 400 mg BID, Week 12, before LOAC and OCS use, as observed, mITT
[2] = 400 mg BID, Week 12, observed/LOCF imputed, mITT
[3] = 400 mg BID, Week 12, on-site conventional spirometry as observed, mITT
[4] = 400 mg BID, Week 12, reduced model, mITT
[5] = 400 mg BID, Week 16, before LOAC and OCS use, as observed, mITT
[6] = 400 mg BID, Week 16, on-site conventional spirometry as observed, mITT
[7] = 400 mg TID, Week 12, 1 exacerbation within 2 years
[8] = 400 mg TID, Week 12, 2 exacerbations within 2 years
[9] = 400 mg TID, Week 12, Eastern Europe
[10] = 400 mg TID, Week 12, Latin America
[11] = 400 mg TID, Week 12, age <45 years
[12] = 400 mg TID, Week 12, age ≥45 years
[13] = 400 mg TID, Week 12, asthma onset age <12 years
[14] = 400 mg TID, Week 12, asthma onset age <18 years
[15] = 400 mg TID, Week 12, asthma onset age ≥12-<18 years
[16] = 400 mg TID, Week 12, asthma onset age ≥18-<40 years
[17] = 400 mg TID, Week 12, asthma onset age ≥18 years
[18] = 400 mg TID, Week 12, asthma onset age ≥40 years
[19] = 400 mg TID, Week 12, atopic medical conditions: No
[20] = 400 mg TID, Week 12, atopic medical conditions: Yes
[21] = 400 mg TID, Week 12, background ICS dose High
[22] = 400 mg TID, Week 12, background ICS dose Medium
[23] = 400 mg TID, Week 12, baseline ACQ-5 >2
[24] = 400 mg TID, Week 12, baseline ACQ-5 ≤2
[25] = 400 mg TID, Week 12, baseline BMI <25 kg/m^2
[26] = 400 mg TID, Week 12, baseline BMI ≥25-<30 kg/m^2
[27] = 400 mg TID, Week 12, baseline BMI ≥30 kg/m^2
[28] = 400 mg TID, Week 12, baseline FEV1 <2.1955 L (median)
[29] = 400 mg TID, Week 12, baseline FEV1 reversibility <12%
[30] = 400 mg TID, Week 12, baseline FEV1 reversibility ≥12%
[31] = 400 mg TID, Week 12, baseline FEV1 ≥2.1955 L (median)
[32] = 400 mg TID, Week 12, baseline FeNO <25 ppb
[33] = 400 mg TID, Week 12, baseline FeNO <35 ppb
[34] = 400 mg TID, Week 12, baseline FeNO ≥25 ppb

CC(C)(C=C(C#N)C(=O)N1CCC[C@@H](n2nc(-c3ccc(Oc4ccccc4)cc3F)c3c(N)ncnc32)C1)N1CCN(C2COC2)CC1 (mixture of isomers) [rilzabrutinib, (R)-2-[3-[4-amino-3-(2-fluoro-4-phenoxy-phenyl)pyrazolo[3,4-d]pyrimidin-1-yl]piperidine-1-carbonyl]-4-methyl-4-[4-(oxetan-3-yl)piperazin-1-yl]pent-2-enenitrile]
Pre-bronchodilator FEV1 change from baseline, median [1]: -0.04 L
Pre-bronchodilator FEV1 percent change from baseline, mean [1]: −2.63%
Pre-bronchodilator FEV1 percent change from baseline, median [1]: −2.04%
Change from baseline in pre-bronchodilator FEV1, Mean [2]: -0.04 L
Change from baseline in pre-bronchodilator FEV1, Median [2]: -0.02 L
Pre-bronchodilator FEV1, Mean [2]: 2.02 L
Pre-bronchodilator FEV1, Median [2]: 1.88 L
Pre-bronchodilator FEV1, mean [2]: 2.02 L
Pre-bronchodilator FEV1, median [2]: 1.88 L
Pre-bronchodilator FEV1 change from baseline, LS Mean [2]: -0.07 L
Pre-bronchodilator FEV1 change from baseline, LS Mean Diff vs. placebo [2]: 0.01 L
Pre-bronchodilator FEV1 change from baseline, Mean [2]: -0.04 L
Pre-bronchodilator FEV1 change from baseline, median [2]: -0.02 L
Pre-bronchodilator FEV1, mean [3]: 1.97 L
Pre-bronchodilator FEV1, median [3]: 1.82 L
Pre-bronchodilator FEV1 change from baseline, Mean [3]: -0.03 L
Pre-bronchodilator FEV1 change from baseline, median [3]: -0.05 L
Pre-bronchodilator FEV1 percent change from baseline, mean [3]: −3.27%
Pre-bronchodilator FEV1 percent change from baseline, median [3]: −2.70%
Change from baseline in pre-bronchodilator FEV1, LS Mean [4]: -0.07 L
Change from baseline in pre-bronchodilator FEV1, LS Mean diff vs. placebo [4]: 0.01 L
Pre-bronchodilator FEV1, mean [5]: 2.30 L
Pre-bronchodilator FEV1, median [5]: 2.01 L
Pre-bronchodilator FEV1 change from baseline, Mean [5]: 0.29 L
Pre-bronchodilator FEV1 change from baseline, median [5]: 0.28 L
Pre-bronchodilator FEV1 percent change from baseline, mean [5]: 13.96%
Pre-bronchodilator FEV1 percent change from baseline, median [5]: 15.23%
Pre-bronchodilator FEV1, mean [6]: 2.30 L
Pre-bronchodilator FEV1, median [6]: 2.01 L
Pre-bronchodilator FEV1 change from baseline, Mean [6]: 0.29 L
Pre-bronchodilator FEV1 change from baseline, median [6]: 0.28 L
Pre-bronchodilator FEV1 percent change from baseline, mean [6]: 13.96%
Pre-bronchodilator FEV1 percent change from baseline, median [6]: 15.23%
Pre-bronchodilator FEV1 change from baseline, LS Mean [7]: -0.14 L
Pre-bronchodilator FEV1 change from baseline, LS Mean Diff vs. placebo [7]: -0.13 L
Pre-bronchodilator FEV1 change from baseline, Mean [7]: -0.16 L
Pre-bronchodilator FEV1 change from baseline, LS Mean [8]: -0.08 L
Pre-bronchodilator FEV1 change from baseline, LS Mean Diff vs. placebo [8]: 0.06 L
Pre-bronchodilator FEV1 change from baseline, Mean [8]: -0.16 L
Pre-bronchodilator FEV1 change from baseline, Mean (400 mg TID, Week 12, >2 exacerbations within 2 years): 0.01 L
Pre-bronchodilator FEV1 change from baseline, LS Mean [9]: -0.18 L
Pre-bronchodilator FEV1 change from baseline, LS Mean Diff vs. placebo [9]: -0.08 L
Pre-bronchodilator FEV1 change from baseline, Mean [9]: -0.18 L
Pre-bronchodilator FEV1 change from baseline, LS Mean [10]: -0.08 L
Pre-bronchodilator FEV1 change from baseline, LS Mean Diff vs. placebo [10]: -0.12 L
Pre-bronchodilator FEV1 change from baseline, Mean [10]: -0.08 L
Pre-bronchodilator FEV1 change from baseline, Mean (400 mg TID, Week 12, Western Countries): -0.18 L
Pre-bronchodilator FEV1 change from baseline, LS Mean [11]: -0.24 L
Pre-bronchodilator FEV1 change from baseline, LS Mean Diff vs. placebo [11]: -0.18 L
Pre-bronchodilator FEV1 change from baseline, Mean [11]: -0.24 L
Pre-bronchodilator FEV1 change from baseline, LS Mean [12]: -0.04 L
Pre-bronchodilator FEV1 change from baseline, LS Mean Diff vs. placebo [12]: -0.01 L
Pre-bronchodilator FEV1 change from baseline, Mean [12]: -0.08 L
Pre-bronchodilator FEV1 change from baseline, LS Mean [13]: -0.34 L
Pre-bronchodilator FEV1 change from baseline, LS Mean Diff vs. placebo [13]: -0.28 L
Pre-bronchodilator FEV1 change from baseline, Mean [13]: -0.25 L
Pre-bronchodilator FEV1 change from baseline, LS Mean [14]: -0.25 L
Pre-bronchodilator FEV1 change from baseline, LS Mean Diff vs. placebo [14]: -0.27 L
Pre-bronchodilator FEV1 change from baseline, Mean [14]: -0.18 L
Pre-bronchodilator FEV1 change from baseline, LS Mean [15]: 0.05 L
Pre-bronchodilator FEV1 change from baseline, LS Mean Diff vs. placebo [15]: -0.40 L
Pre-bronchodilator FEV1 change from baseline, Mean [15]: -0.01 L
Pre-bronchodilator FEV1 change from baseline, LS Mean [16]: -0.18 L
Pre-bronchodilator FEV1 change from baseline, LS Mean Diff vs. placebo [16]: -0.08 L
Pre-bronchodilator FEV1 change from baseline, Mean [16]: -0.17 L
Pre-bronchodilator FEV1 change from baseline, LS Mean [17]: -0.10 L
Pre-bronchodilator FEV1 change from baseline, LS Mean Diff vs. placebo [17]: -0.02 L
Pre-bronchodilator FEV1 change from baseline, Mean [17]: -0.14 L
Pre-bronchodilator FEV1 change from baseline, LS Mean [18]: 0.01 L
Pre-bronchodilator FEV1 change from baseline, LS Mean Diff vs. placebo [18]: 0.06 L
Pre-bronchodilator FEV1 change from baseline, Mean [18]: -0.07 L
Pre-bronchodilator FEV1 change from baseline, LS Mean [19]: -0.15 L
Pre-bronchodilator FEV1 change from baseline, LS Mean Diff vs. placebo [19]: -0.11 L
Pre-bronchodilator FEV1 change from baseline, Mean [19]: -0.18 L
Pre-bronchodilator FEV1 change from baseline, LS Mean [20]: -0.12 L
Pre-bronchodilator FEV1 change from baseline, LS Mean Diff vs. placebo [20]: -0.04 L
Pre-bronchodilator FEV1 change from baseline, Mean [20]: -0.09 L
Pre-bronchodilator FEV1 change from baseline, LS Mean [21]: -0.13 L
Pre-bronchodilator FEV1 change from baseline, LS Mean Diff vs. placebo [21]: -0.07 L
Pre-bronchodilator FEV1 change from baseline, Mean [21]: -0.13 L
Pre-bronchodilator FEV1 change from baseline, LS Mean [22]: -0.15 L
Pre-bronchodilator FEV1 change from baseline, LS Mean Diff vs. placebo [22]: -0.10 L
Pre-bronchodilator FEV1 change from baseline, Mean [22]: -0.18 L
Pre-bronchodilator FEV1 change from baseline, LS Mean [23]: -0.15 L
Pre-bronchodilator FEV1 change from baseline, LS Mean Diff vs. placebo [23]: -0.16 L
Pre-bronchodilator FEV1 change from baseline, Mean [23]: -0.17 L
Pre-bronchodilator FEV1 change from baseline, LS Mean [24]: -0.12 L
Pre-bronchodilator FEV1 change from baseline, LS Mean Diff vs. placebo [24]: -0.01 L
Pre-bronchodilator FEV1 change from baseline, Mean [24]: -0.10 L
Pre-bronchodilator FEV1 change from baseline, LS Mean [25]: -0.19 L
Pre-bronchodilator FEV1 change from baseline, LS Mean Diff vs. placebo [25]: -0.16 L
Pre-bronchodilator FEV1 change from baseline, Mean [25]: -0.21 L
Pre-bronchodilator FEV1 change from baseline, LS Mean [26]: -0.11 L
Pre-bronchodilator FEV1 change from baseline, LS Mean Diff vs. placebo [26]: -0.05 L
Pre-bronchodilator FEV1 change from baseline, Mean [26]: -0.14 L
Pre-bronchodilator FEV1 change from baseline, LS Mean [27]: -0.11 L
Pre-bronchodilator FEV1 change from baseline, LS Mean Diff vs. placebo [27]: -0.07 L
Pre-bronchodilator FEV1 change from baseline, Mean [27]: -0.14 L
Pre-bronchodilator FEV1 change from baseline, LS Mean [28]: -0.03 L
Pre-bronchodilator FEV1 change from baseline, LS Mean Diff vs. placebo [28]: -0.09 L
Pre-bronchodilator FEV1 change from baseline, Mean [28]: -0.05 L
Pre-bronchodilator FEV1 change from baseline, LS Mean [29]: -0.16 L
Pre-bronchodilator FEV1 change from baseline, LS Mean Diff vs. placebo [29]: -0.12 L
Pre-bronchodilator FEV1 change from baseline, Mean [29]: -0.18 L
Pre-bronchodilator FEV1 change from baseline, LS Mean [30]: -0.01 L
Pre-bronchodilator FEV1 change from baseline, LS Mean Diff vs. placebo [30]: -0.02 L
Pre-bronchodilator FEV1 change from baseline, Mean [30]: 0.00 L
Pre-bronchodilator FEV1 change from baseline, LS Mean [31]: -0.22 L
Pre-bronchodilator FEV1 change from baseline, LS Mean Diff vs. placebo [31]: -0.09 L
Pre-bronchodilator FEV1 change from baseline, Mean [31]: -0.21 L
Pre-bronchodilator FEV1 change from baseline, LS Mean [32]: -0.16 L
Pre-bronchodilator FEV1 change from baseline, LS Mean Diff vs. placebo [32]: -0.12 L
Pre-bronchodilator FEV1 change from baseline, Mean [32]: -0.19 L
Pre-bronchodilator FEV1 change from baseline, LS Mean [33]: -0.14 L
Pre-bronchodilator FEV1 change from baseline, LS Mean Diff vs. placebo [33]: -0.09 L
Pre-bronchodilator FEV1 change from baseline, Mean [33]: -0.18 L
Pre-bronchodilator FEV1 change from baseline, LS Mean [34]: -0.09 L
Pre-bronchodilator FEV1 change from baseline, LS Mean Diff vs. placebo [34]: -0.04 L
Pre-bronchodilator FEV1 change from baseline, Mean [34]: -0.09 L
Pre-bronchodilator FEV1 change from baseline, LS Mean (400 mg TID, Week 12, baseline FeNO ≥35 ppb): -0.07 L
